The values that follow come from patent US10364245B2 (CHIESI FARMACEUTICI S.p.A., priority 2017, dated 2019).

Structures are written as SMILES. Some results are limits rather than exact numbers.

For assay [1], the target named is T1, p38 alpha (Homo sapiens, UniProt Q16539).
T1 construct: purchased Invitrogen PV3304
The assay can be described thus: P38 alpha enzyme inhibition assay (Alphascreen kinase activity assay). The assay is classed as biochemical. The conditions noted are these: 100 pM p38 alpha, 2 hours preincubation at 25° C., 250 μM ATP, ATF-2 fusion protein; read-out: p38α inhibition. The essentials: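 100 pM p38 alpha preincubated 2 h at 25 °C with compound and 0.3 μg/ml ATF-2 fusion substrate (HEPES pH 7.5, MgCl2, 1% DMSO). Reaction started with 250 μM ATP, run 1 h at 25 °C, stopped with EDTA; phospho-ATF2 detected by AlphaScreen luminescence. IC50 from concentration-response curves.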

Assay [2] has as its system Peripheral Blood Mononuclear Cells (PBMCs), TNFα release. The assay can be described thus: LPS-stimulated PBMC TNFα release assay. Format: cell-based. To be noted: human PBMC, LPS (10 ng/ml), 18 h, compound 1 h before LPS; read-out: LPS-stimulated PBMC TNFα release inhibition. The gist of the method: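 Human PBMCs from healthy donors, serum-starved 3 h, then pre-incubated 1 h at 37 °C with compound in 1% FBS medium before LPS (10 ng/ml) for 18 h. Supernatant TNFα measured by MSD; IC50 from dose-response as % inhibition of control, at least three experiments.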

T1 sequence (Q16539 whole entry): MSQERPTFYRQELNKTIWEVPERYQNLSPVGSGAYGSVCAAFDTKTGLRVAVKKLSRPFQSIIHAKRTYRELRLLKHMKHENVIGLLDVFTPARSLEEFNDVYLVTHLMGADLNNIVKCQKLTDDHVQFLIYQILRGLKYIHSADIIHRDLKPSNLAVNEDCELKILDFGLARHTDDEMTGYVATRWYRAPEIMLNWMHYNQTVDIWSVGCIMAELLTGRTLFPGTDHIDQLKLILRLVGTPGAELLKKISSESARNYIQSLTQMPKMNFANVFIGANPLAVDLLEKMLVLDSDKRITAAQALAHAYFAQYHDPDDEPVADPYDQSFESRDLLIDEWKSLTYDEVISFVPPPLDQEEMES

For `CNC(=O)c1cc(NC(=O)N[C@H]2CC[C@@H](Oc3ccc4nnc([C@]5(C)CCCN5C)n4c3)c3ccccc32)cc(C(C)(C)C)n1` [Example 53, 6-(tert-Butyl)-4-(3-((1S,4R)-4-((3-((S)-1,2-dimethylpyrrolidin-2-yl)-[1,2,4]triazolo[4,3-a]pyridin-6-yl)oxy)-1,2,3,4-tetrahydronaphthalen-1-yl)ureido)-N-methylpicolinamide], the figures for the IC50 in assay [1] and in assay [2] were 1 to 10 nM and 1 to 5 nM, respectively.
With `COCC(C)(C)c1nnc2ccc(O[C@@H]3CC[C@H](NC(=O)Nc4cc(C(C)(C)C)nc(C(=O)NCCN(C)C)n4)c4ccccc43)cn12` [Example 54, 4-(tert-Butyl)-N-(2-(dimethylamino)ethyl)-6-(3-((1S,4R)-4-((3-(methoxy-2-methylpropan-2-yl)-[1,2,4]triazolo[4,3-a]pyridin-6-yl)oxy)-1,2,3,4-tetrahydronaphthalen-1-yl)ureido)pyrimidine-2-carboxamide], the IC50 was less than 1 nM in assay [1] and 1 to 5 nM in assay [2].
On the same counts, the results for `CN(C)CCNC(=O)c1nc(NC(=O)N[C@H]2CC[C@@H](Oc3ccc4nnc(C5(C)COC5)n4c3)c3ccccc32)cc(C(C)(C)C)n1` [Example 55, 4-(tert-Butyl)-N-(2-(dimethylamino)ethyl)-6-(3-((1S,4R)-4-((3-(3-methyloxetan-3-yl)-[1,2,4]triazolo[4,3-a]pyridin-6-yl)oxy)-1,2,3,4-tetrahydronaphthalen-1-yl)ureido)pyrimidine-2-carboxamide] are 1 to 10 nM and greater than 5 nM.
On the same counts, the results for `CO[C@@H](C)c1nnc2ccc(O[C@@H]3CC[C@H](NC(=O)Nc4cc(C(C)(C)C)nc(C(=O)NCCN(C)C)n4)c4ccccc43)cn12` [Example 56, 4-(tert-Butyl)-N-(2-(dimethylamino)ethyl)-6-(3-((1S,4R)-4-((3-((S)-1-methoxyethyl)-[1,2,4]triazolo[4,3-a]pyridin-6-yl)oxy)-1,2,3,4-tetrahydronaphthalene-1-yl)ureido)pyrimidin-2-carboxamide] are 1 to 10 nM and greater than 5 nM.
On the same counts, the results for `COC(C)(C)c1nnc2ccc(O[C@@H]3CC[C@H](NC(=O)Nc4cc(COCCN5CCOCC5)nc(C(C)(C)C)c4)c4ccccc43)cn12` [Example 57] are 1 to 10 nM and greater than 5 nM.
For the molecule `CN(C)CCNC(=O)c1cc(C(C)(C)C)cc(NC(=O)N[C@H]2CC[C@@H](Oc3ccc4nnc(C(C)(C)C)n4c3)c3ccccc32)n1` [Example 58, 4-(tert-Butyl)-6-(3-((1S,4R)-4-((3-(tert-butyl)-[1,2,4]triazolo[4,3-a]pyridin-6-yl)oxy)-1,2,3,4-tetrahydronaphthalen-1-yl)ureido)-N-(2-(dimethylamino)ethyl)picolinamide], the IC50 in assay [1] is less than 1 nM; in assay [2], 1 to 5 nM.
On the same counts, the results for `CN(C)CCNC(=O)c1nc(NC(=O)N[C@H]2CC[C@@H](Oc3ccc4nnc(CC(C)(C)C)n4c3)c3ccccc32)cc(C(C)(C)C)n1` [Example 59, 4-(tert-Butyl)-N-(2-(dimethylamino)ethyl)-6-(3-((1S,4R)-4-((3-neopentyl-[1,2,4]triazolo[4,3-a]pyridin-6-yl)oxy)-1,2,3,4-tetrahydronaphthalen-1-yl)ureido)pyrimidine-2-carboxamide] are 1 to 10 nM and greater than 5 nM.
Consider `CC(C)Cc1nnc2ccc(O[C@@H]3CC[C@H](NC(=O)Nc4cc(C(C)(C)C)nc(C(=O)NCCO)n4)c4ccccc43)cn12` [Example 60, 4-(tert-Butyl)-N-(2-hydroxyethyl)-6-(3-((1S,4R)-4-((3-isobutyl-[1,2,4]triazolo[4,3-a]pyridin-6-yl)oxy)-1,2,3,4-tetrahydronaphthalen-1-yl)ureido)pyrimidine-2-carboxamide], for which the figures for the IC50 in assay [1] and in assay [2] were less than 1 nM and 1 to 5 nM, respectively.
As to `CN1CCC[C@@]1(C)c1nnc2ccc(O[C@@H]3CC[C@H](NC(=O)Nc4cc(C(=O)NCCO)nc(C(C)(C)C)c4)c4ccccc43)cn12` [Example 61, 6-(tert-Butyl)-4-(3-((1S,4R)-4-((3-((S)-1,2-dimethylpyrrolidin-2-yl)-[1,2,4]triazolo[4,3-a]pyridin-6-yl)oxy)-1,2,3,4-tetrahydronaphthalen-1-yl)ureido)-N-(2-hydroxyethyl)picolinamide], the IC50 lay within 1 to 10 nM in assay [1] and 1 to 5 nM in assay [2].
On the same counts, the results for `CN(C)CCNC(=O)c1cc(NC(=O)N[C@H]2CC[C@@H](Oc3ccc4nnc([C@]5(C)CCCN5C)n4c3)c3ccccc32)cc(C(C)(C)C)n1` [Example 62, 6-(tert-Butyl)-N-(2-(dimethylamino)ethyl)-4-(3-((1S,4R)-4-((3-((S)-1,2-dimethylpyrrolidin-2-yl)-[1,2,4]triazolo[4,3-a]pyridin-6-yl)oxy)-1,2,3,4-tetrahydronaphthalen-1-yl)ureido)picolinamide] are less than 1 nM and greater than 5 nM.
On the same counts, the results for `CC(C)(C)c1cc(NC(=O)N[C@H]2CC[C@@H](Oc3ccc4nnc(C5CCCC5)n4c3)c3ccccc32)nc(C(=O)NCCO)n1` [Example 64] are less than 1 nM and greater than 5 nM.
Consider `CC(C)c1nnc2ccc(O[C@@H]3CC[C@H](NC(=O)Nc4cc(C(C)(C)C)nc(C(=O)NCCO)n4)c4ccccc43)cn12` [Example 65, 4-(tert-butyl)-N-(2-hydroxyethyl)-6-(3-((1S,4R)-4-((3-isopropyl-[1,2,4]triazolo[4,3-a]pyridin-6-yl)oxy)-1,2,3,4-tetrahydronaphthalen-1-yl)ureido)pyrimidine-2-carboxamide], for which the values for the IC50 in assay [1] and in assay [2] were less than 1 nM and greater than 5 nM, respectively.
`CC(C)c1nnc2ccc(O[C@@H]3CC[C@H](NC(=O)Nc4cc(C(C)(C)C)nc(C(=O)NCCN5CCOCC5)n4)c4ccccc43)cn12` [Example 66, 4-(tert-butyl)-6-(3-((1S,4R)-4-((3-isopropyl-[1,2,4]triazolo[4,3-a]pyridin-6-yl)oxy)-1,2,3,4-tetrahydronaphthalen-1-yl)ureido)-N-(2-morpholinoethyl)pyrimidine-2-carboxamide]: the IC50 in assay [1] is 1 to 10 nM; in assay [2], greater than 5 nM.
In the case of `COCCN(C)CCNC(=O)c1nc(NC(=O)N[C@H]2CC[C@@H](Oc3ccc4nnc(C(C)(C)C)n4c3)c3ccccc32)cc(C(C)(C)C)n1` [Example 67, 4-(tert-butyl)-6-(3-((1S,4R)-4-((3-(tert-butyl)-[1,2,4]triazolo[4,3-a]pyridin-6-yl)oxy)-1,2,3,4-tetrahydronaphthalen-1-yl)ureido)-N-(2-((2-methoxyethyl)(methyl)amino)ethyl)pyrimidine-2-carboxamide], the IC50 in assay [1] is 1 to 10 nM; in assay [2] it was 1 to 5 nM.
On to `CC(C)(C)c1cc(NC(=O)N[C@H]2CC[C@@H](Oc3ccc4nnc(C(C)(C)C)n4c3)c3ccccc32)nc(C(=O)NCCN2CCOCC2)n1` [Example 68, 4-(tert-butyl)-6-(3-((1S,4R)-4-((3-(tert-butyl)-[1,2,4]triazolo[4,3-a]pyridin-6-yl)oxy)-1,2,3,4-tetrahydronaphthalen-1-yl)ureido)-N-(2-morpholinoethyl)pyrimidine-2-carboxamide], for which the IC50 in assay [1] is less than 1 nM; in assay [2] it was 1 to 5 nM.
